Test results reported in patent US20100048729A1, “Composition based on xanthoxyline and its use in cosmetic” (PIERRE FABRE DERMO-COSMETIQUE, priority 2006, published 2010).

How the values were obtained:
Candida albicans = details: literature; cited from earlier work
[1] = tested on: gram-positive and gram-negative bacteria; details: literature; cited from earlier work
Penicillium expansum = details: literature; cited from earlier work
3T3F442A preadipocytes [2] = assay: Adipocyte differentiation: triglyceride accumulation (Adipored) in differentiated 3T3F442A cells; assay type: cell-based; details: 168 h, 0.3 μg/ml, 7 days differentiation, FIG. 2, read-out: inhibition (accumulation of triglycerides), optimum activity
Protocol: The Applicant has studied on the one hand the effect of a dry extract of Zanthoxylum bungeanum, and on the other hand the effect of xanthoxyline, on the process of adipocyte differentiation and proliferation. […] 3T3F442A prepadipocytes are capable of differentiating into adipocytes in the presence of insulin, 3-isobutyl-1-methylxanthine and dexamethasone (the Journal of Pharmacology and Experimental Therapeutics: RIVAL Y., 2004, 311(2): 467-475). […] 3T3F442A cells are cultured in DMEM medium (GIBCOBRL, ref 32430-027) containing 10% foetal calf serum at 37° C., 5% CO2 in a humid atmosphere. They are seeded at 5000 cells per well (96-well plate). […] The visualisation and quantification of intracellular lipid vacuoles in the differentiated cells are analysed using Adipored reagent, a fluorescent colorant specific to triglycerides (neutral and amphiphilic lipids) (Journal of Cell Biology: […]., 1985, 100: 965-973). The culture medium is removed and the cells are rinsed with phosphate buffer D-PBS (GIBCOBRL, ref 21300-058). Adipored reagent is then added. After incubation for 10 minutes at ambient temperature, the fluorescence is measured (excitation 485 nm, emission 530 nm). A histological analysis using a confocal Laser microscope (ZEISS LSM 410 Invert Laser scan Microscope) is also carried out at 543 nm.

[3] = tested on: pathogenic fungi such as Trichophyton; details: literature; cited from earlier work
3T3F442A preadipocytes [4] = details: adipocyte differentiation model over a long culture period; literature; cited from earlier work

| Compound | Anti-fungal activity (Candida albicans) | Anti-bacterial activity [1] | Anti-fungal activity (Penicillium expansum) | inhibition at 0.3 µg/mL (3T3F442A preadipocytes [2]) [%] | Anti-fungal activity [3] | inhibition of the accumulation of triglycerides (3T3F442A preadipocytes [4]) |
| --- | --- | --- | --- | --- | --- | --- |
| COc1cc(O)c(C(C)=O)c(OC)c1 [Xanthoxyline, 4,6-dimethoxy-2-hydroxyacetophenone] | moderate | mediocre | moderate | 12 | moderate |  |
| TNFα |  |  |  |  |  | known to inhibit the accumulation of triglycerides |
